According to the supplement of paper PMC10307832:

Tests used:
Test in all cases: relative viability (nuclei count vs DMSO), 5 days (fraction); higher = more cells survive
[1] = tested on: NCI-H2170
Method in brief: (§1)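 Five library-drug doses in √10 steps were combined with a fixed anchor-drug dose, or a single drug was given alone, by pin tool to lung cancer cell lines in 1536-well plates the day after seeding. Nuclei were stained and counted after 5 days. Relative viability is the nuclei count in treated wells over that in vehicle wells, taken as the median of duplicate plates.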

[2] = tested on: NCI-H23
Method in brief: as §1

[3] = tested on: NCI-H1975
Method in brief: as §1

[4] = tested on: HOP-62
Method in brief: as §1

[5] = tested on: NCI-H1299
Method in brief: as §1

[6] = tested on: Calu-6
Method in brief: as §1

[7] = tested on: EBC-1
Method in brief: as §1

[8] = tested on: IA-LM
Method in brief: as §1

[9] = tested on: NCI-H1703
Method in brief: as §1

[10] = tested on: A549
Method in brief: as §1

C=C1C(=O)O[C@@H](CCCCCCCC)[C@@H]1C(=O)O [C-75] + CC(=O)Nc1cccc(-n2c(=O)n(C3CC3)c(=O)c3c(Nc4ccc(I)cc4F)n(C)c(=O)c(C)c32)c1 [Trametinib] (partner 0.02 µM) was tested, and the relative viability ([1]; first compound 0.08 µM) was 0.962, the relative viability ([1]; first compound 0.253 µM) was 0.924 and the relative viability ([1]; first compound 0.8 µM) was 0.941. The relative viability ([1]; first compound 2.53 µM) was 0.849, the relative viability ([1]; first compound 8 µM) was 0.85 and the relative viability ([2]; first compound 0.08 µM) was 0.361. The relative viability ([2]; first compound 0.253 µM) was 0.436, the relative viability ([2]; first compound 0.8 µM) was 0.343 and the relative viability ([2]; first compound 2.53 µM) was 0.291. The relative viability ([2]; first compound 8 µM) was 0.321, the relative viability ([3]; first compound 0.08 µM) was 0.452 and the relative viability ([3]; first compound 0.253 µM) was 0.309. It also gave a relative viability ([3]; first compound 0.8 µM) of 0.305, a relative viability ([3]; first compound 2.53 µM) of 0.319 and a relative viability ([3]; first compound 8 µM) of 0.41. The relative viability ([4]; first compound 0.08 µM) was 0.354, the relative viability ([4]; first compound 0.253 µM) was 0.43 and the relative viability ([4]; first compound 0.8 µM) was 0.358. It also gave a relative viability ([4]; first compound 2.53 µM) of 0.321 and a relative viability ([4]; first compound 8 µM) of 0.359.
With C=C1C(=O)O[C@@H](CCCCCCCC)[C@@H]1C(=O)O [C-75] + O=C(c1cc(Cc2n[nH]c(=O)c3ccccc23)ccc1F)N1CCN(C(=O)C2CC2)CC1 [Olaparib] (partner 8 µM) the relative viability ([5]; first compound 0.08 µM) was 0.946, the relative viability ([5]; first compound 0.253 µM) was 0.976 and the relative viability ([5]; first compound 0.8 µM) was 0.974. It also gave a relative viability ([5]; first compound 2.53 µM) of 0.93, a relative viability ([5]; first compound 8 µM) of 0.924 and a relative viability ([6]; first compound 0.08 µM) of 0.558. For the same compound, the relative viability ([6]; first compound 0.253 µM) was 0.576, the relative viability ([6]; first compound 0.8 µM) was 0.522 and the relative viability ([6]; first compound 2.53 µM) was 0.489. It also gave a relative viability ([6]; first compound 8 µM) of 0.469, a relative viability ([7]; first compound 0.08 µM) of 0.62 and a relative viability ([7]; first compound 0.253 µM) of 0.807. For the same compound, the relative viability ([7]; first compound 0.8 µM) was 0.692, the relative viability ([7]; first compound 2.53 µM) was 0.613 and the relative viability ([7]; first compound 8 µM) was 0.536. It also gave a relative viability ([8]; first compound 0.08 µM) of 0.803, a relative viability ([8]; first compound 0.253 µM) of 0.885 and a relative viability ([8]; first compound 0.8 µM) of 0.788. For the same compound, the relative viability ([8]; first compound 2.53 µM) was 0.761, the relative viability ([8]; first compound 8 µM) was 0.767 and the relative viability ([1]; first compound 0.08 µM) was 0.594. For the same compound, the relative viability ([1]; first compound 0.253 µM) was 0.633, the relative viability ([1]; first compound 0.8 µM) was 0.541 and the relative viability ([1]; first compound 2.53 µM) was 0.647. The relative viability ([1]; first compound 8 µM) was 0.627, the relative viability ([9]; first compound 0.08 µM) was 0.416 and the relative viability ([9]; first compound 0.253 µM) was 0.391. For the same compound, the relative viability ([9]; first compound 0.8 µM) was 0.348, the relative viability ([9]; first compound 2.53 µM) was 0.441 and the relative viability ([9]; first compound 8 µM) was 0.432. For the same compound, the relative viability ([10]; first compound 0.08 µM) was 0.394, the relative viability ([10]; first compound 0.253 µM) was 0.497 and the relative viability ([10]; first compound 0.8 µM) was 0.216. The relative viability ([10]; first compound 2.53 µM) was 0.128, the relative viability ([10]; first compound 8 µM) was 0.251 and the relative viability ([2]; first compound 0.08 µM) was 0.364. For the same compound, the relative viability ([2]; first compound 0.253 µM) was 0.334, the relative viability ([2]; first compound 0.8 µM) was 0.239 and the relative viability ([2]; first compound 2.53 µM) was 0.555. The relative viability ([2]; first compound 8 µM) was 0.24, the relative viability ([3]; first compound 0.08 µM) was 0.777 and the relative viability ([3]; first compound 0.253 µM) was 0.817. For the same compound, the relative viability ([3]; first compound 0.8 µM) was 0.755, the relative viability ([3]; first compound 2.53 µM) was 0.77 and the relative viability ([3]; first compound 8 µM) was 0.741. It also gave a relative viability ([4]; first compound 0.08 µM) of 0.532, a relative viability ([4]; first compound 0.253 µM) of 0.5 and a relative viability ([4]; first compound 0.8 µM) of 0.321. For the same compound, the relative viability ([4]; first compound 2.53 µM) was 0.372 and the relative viability ([4]; first compound 8 µM) was 0.393.
Compound C=C1C(=O)O[C@@H](CCCCCCCC)[C@@H]1C(=O)O [C-75] + O=C(CCCCCCC(=O)Nc1ccccc1)NO [Vorinostat] (partner 1 µM) has a relative viability ([8]; first compound 0.08 µM) of 0.886, a relative viability ([8]; first compound 0.253 µM) of 1.35 and a relative viability ([8]; first compound 0.8 µM) of 0.935. The relative viability ([8]; first compound 2.53 µM) was 1.25, the relative viability ([8]; first compound 8 µM) was 0.8 and the relative viability ([1]; first compound 0.08 µM) was 0.803. The relative viability ([1]; first compound 0.253 µM) was 0.961, the relative viability ([1]; first compound 0.8 µM) was 0.714 and the relative viability ([1]; first compound 2.53 µM) was 0.697. For the same compound, the relative viability ([1]; first compound 8 µM) was 0.808, the relative viability ([2]; first compound 0.08 µM) was 0.605 and the relative viability ([2]; first compound 0.253 µM) was 0.642. For the same compound, the relative viability ([2]; first compound 0.8 µM) was 0.497, the relative viability ([2]; first compound 2.53 µM) was 0.366 and the relative viability ([2]; first compound 8 µM) was 0.407. For the same compound, the relative viability ([3]; first compound 0.08 µM) was 0.757, the relative viability ([3]; first compound 0.253 µM) was 0.733 and the relative viability ([3]; first compound 0.8 µM) was 0.761. For the same compound, the relative viability ([3]; first compound 2.53 µM) was 0.718, the relative viability ([3]; first compound 8 µM) was 0.742 and the relative viability ([4]; first compound 0.08 µM) was 0.563. The relative viability ([4]; first compound 0.253 µM) was 0.834, the relative viability ([4]; first compound 0.8 µM) was 0.629 and the relative viability ([4]; first compound 2.53 µM) was 0.478. For the same compound, the relative viability ([4]; first compound 8 µM) was 0.449.
